Assay results as given in US9169252B2 (BRISTOL-MYERS SQUIBB COMPANY, priority 2014, dated 2015).
pEC50, pIC50: −log10 of the molar value. Like-named read-outs stand apart in the source and are kept apart here.

Key:
[1] = biological target: IRAK4 (Homo sapiens (Human), UniProt Q9NWZ3); experiment: IRAK4 Inhibition Assay; assay type: biochemical; conditions: ATP 500 μM, read-out: IRAK4 IC50
Procedure, shortened: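 Mobility-shift readout: fluorescent substrate and phosphoproduct resolved electrophoretically on Caliper LabChip 3000 after EDTA quench (35 mM). Enzyme reaction of IRAK4, substrates and test compound ran 60 min at room temperature.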

[2] = tested on: TLR2 induced IL-6 in peripheral blood mononuclear cells (PBMCs); experiment: PBMC TLR2 Induced IL-6 Assay; assay type: cell-based, human; conditions: IL-6 by ELISA; for pEC50: read-out: Cell EC50; for pIC50: read-out: Cell IC50
Procedure, shortened: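 Lipoteichoic acid at 10 µg/ml served as TLR2 stimulus for 5 hours, following a 30-minute compound pretreatment at 37° C. Cells were Ficoll-isolated human PBMCs, 250000 cells/well, cultured in RPMI plus 10% heat-inactivated FCS.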

[3] = Homo sapiens, PBMC, PBMC TLR2 Induced IL-6 Assay, lipoteichoic acid stimulation
[4] = Homo sapiens, PBMC, human PBMCs, lipoteichoic acid stimulated
[5] = human PBMCs, lipoteichoic acid stimulated

Sequence of IRAK4 (Q9NWZ3 whole entry, species assumed): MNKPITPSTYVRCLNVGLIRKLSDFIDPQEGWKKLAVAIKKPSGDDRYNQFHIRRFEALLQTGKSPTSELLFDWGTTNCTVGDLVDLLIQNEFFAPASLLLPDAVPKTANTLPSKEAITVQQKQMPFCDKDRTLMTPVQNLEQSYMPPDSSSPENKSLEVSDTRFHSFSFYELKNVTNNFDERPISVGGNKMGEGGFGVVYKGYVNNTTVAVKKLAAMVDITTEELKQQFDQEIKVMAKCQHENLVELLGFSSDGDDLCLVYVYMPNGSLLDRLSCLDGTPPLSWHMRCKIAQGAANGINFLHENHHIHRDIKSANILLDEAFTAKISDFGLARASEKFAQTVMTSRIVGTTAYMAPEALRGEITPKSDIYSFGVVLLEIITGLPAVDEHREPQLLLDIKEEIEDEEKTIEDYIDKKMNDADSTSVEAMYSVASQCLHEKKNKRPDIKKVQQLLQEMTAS

Compound | pIC50 ([1]; IRAK4 Inhibition Assay) | pEC50 [2, 3] | pIC50 ([1]; IRAK4 0.6 nM) | also measured
CC(=O)N[C@H]1CC[C@H](NC(=O)c2cnc(-n3ncc4cc(C#N)cnc43)cc2NC(C)C)CC1 [Example 164, N-((trans)-4-acetamidocyclohexyl)-6-(5-cyano-1H-pyrazolo[3,4-b]pyridin-1-yl)-4-(isopropylamino) nicotinamide] | 8.46 | 6.52 |  | 
CCCC(=O)NCc1cnc2c(ccn2-c2cc(NC(C)C)c(C(=O)NC[C@@H](F)C(C)(C)O)cn2)c1 [Example 510] |  |  | 8.49 | pIC50 [2, 4]: 6.60
CC(O)CCNc1cc(-n2ccc3cc(C#N)cnc32)ncc1C(=O)NC[C@@H](F)C(C)(C)O (single isomer, unassigned) [Example 462] |  |  | 8.54 | pEC50 [2, 5]: 7.18; pIC50 [2, 5]: 6.40
CC(C)(O)[C@H](F)CNC(=O)c1cnc(-n2ncc3cc(C#N)cnc32)cc1NC1CCCOC1 (single isomer, unassigned) [Example 143] | 8.19 |  |  | pEC50 ([2]; PBMC TLR2 Induced IL-6 Assay, lipoteichoic acid stimulation): 6.73
CNC(=O)[C@H]1CC[C@H](NC(=O)c2cnc(-n3ccc4cc(C#N)cnc43)cc2NC2CC2)CC1 [Example 85, 6-(5-cyano-1H-pyrrolo[2,3-b]pyridin-1-yl)-4-(cyclopropylamino)-N-((trans)-4-(methylcarbamoyl)cyclohexyl) nicotinamide] | 7.88 | 6.28 |  | 
COC1CCN(c2ccc(NC(=O)c3cnc(-n4ncc5cc(C#N)cnc54)cc3NC(C)C)nc2)CC1 [Example 254] | 8.00 |  |  | pIC50 [2, 3]: 6.30
Cn1cc(-c2ccc(Nc3cc(-n4ncc5cc(C#N)cnc54)ncc3C(=O)NC[C@@H](F)C(C)(C)O)cc2)cn1 [Example 531] |  |  | 8.66 | pIC50 [2, 4]: 7.17
CC(C)(O)[C@H](F)CNC(=O)c1cnc(-n2ncc3cc(C#N)cnc32)cc1N[C@H]1CC[C@H](O)CC1 [Example 159, 6-(5-cyano-1H-pyrazolo[3,4-b]pyridin-1-yl)-N—((R)-2-fluoro-3-hydroxy-3-methylbutyl)-4-(((trans)-4-hydroxycyclohexyl)amino)nicotinamide] | 8.62 | 6.95 |  | 
CC(C)Nc1cc(-n2ncc3cc(C#N)cnc32)ncc1C(=O)NCCC1(O)CCOC1 (centres unmarked) [Example 237] | 8.17 | 6.99 |  | pIC50 [2, 3]: 6.44
CC(C)Nc1cc(-n2cnc3cc(Cl)cnc32)ncc1C(=O)NC[C@@H](F)C(C)(C)O [Example 339] | 8.40 |  |  | pIC50 [2, 3]: 6.48
CC(C)Nc1cc(-n2ccc3cc(C#N)cnc32)ncc1C(=O)N[C@H]1CC[C@H](C(C)(C)O)CC1 [Example 96, 6-(5-cyano-1H-pyrrolo[2,3-b]pyridin-1-yl)-N-((trans)-4-(2-hydroxypropan-2-yl)cyclohexyl)-4-(isopropylamino)nicotinamide] | 8.85 | 7.42 |  | 
CC(C)(F)[C@H](F)CNC(=O)c1cnc(-n2ncc3cc(C#N)cnc32)cc1NC12CC3CC(CC(O)(C3)C1)C2 [Example 636] |  |  | 8.52 | pIC50 [2, 4]: 6.53
CC(F)Cn1cc(Nc2cc(-n3cnc4cc(C#N)cnc43)ncc2C(=O)NC[C@@H](F)C(C)(C)O)cn1 (mixture of isomers) [Example 378] | 8.59 |  |  | pIC50 [2, 3]: 6.18
CC(C)(O)c1cnc(Nc2cc(-n3ncc4cc(C#N)cnc43)ncc2C(=O)NC[C@@H](F)C(C)(C)O)s1 [Example 521, (R)-6-(5-Cyano-1H-pyrazolo[3,4-b]pyridin-1-yl)-N-(2-fluoro-3-hydroxy-3-methylbutyl)-4-((5-(2-hydroxypropan-2-yl)thiazol-2-yl)amino)nicotinamide] |  |  | 8.46 | pEC50 [2, 4]: 6.34
CC(C)(O)[C@H](F)CNC(=O)c1cnc(-n2ccc3cc(C#N)cnc32)cc1NC12CCC(O)(CC1)C2 [Example 16, (R)-6-(5-cyano-1H-pyrrolo[2,3-b]pyridin-1-yl)-N-(2-fluoro-3-hydroxy-3-methylbutyl)-4-((4-hydroxybicyclo[2.2.1]heptan-1-yl)amino)nicotinamide] | 8.92 | 7.82 |  | 
CC(O)CCNc1cc(-n2ccc3cc(C#N)cnc32)ncc1C(=O)NC[C@@H](F)C(C)(C)O (some centres unmarked) [Example 422] |  |  | 8.64 | pEC50 [2, 5]: 8.40
CC(=O)Nc1cccc(Nc2cc(-n3ccc4cc(C#N)cnc43)ncc2C(=O)NC[C@@H](F)C(C)(C)O)c1 [Example 54, (R)-4-((3-acetamidophenyl)amino)-6-(5-cyano-1H-pyrrolo[2,3-b]pyridin-1-yl)-N-(2-fluoro-3-hydroxy-3-methylbutyl) nicotinamide] | 8.74 | 6.60 |  | 
CC(C)Nc1cc(-n2ncc3cc(C#N)cnc32)ncc1C(=O)NCCC1CCCCO1 (centres unmarked) [Example 220] | 8.19 | 6.77 |  | 
CC(C)Nc1cc(-n2ncc3cc(C#N)cnc32)ncc1C(=O)NCC(F)=C1CCOCC1 [Example 294] | 7.87 |  |  | pIC50 [2, 3]: 6.53
CC(C)(O)[C@H]1CC[C@H](Nc2cc(-n3ncc4cc(C#N)cnc43)ncc2C(=O)NC[C@@H](F)C(C)(C)O)C1 [Example 617] |  |  | 8.55 | pIC50 [2, 4]: 6.31
CC(C)(O)[C@H](F)CNC(=O)c1cnc(-n2ccc3cc(C#N)cnc32)cc1NC(CO)CF (stereo partly drawn) [Example 131, 6-(5-Cyano-1H-pyrrolo[2,3-b]pyridin-1-yl)-N—((R)-2-fluoro-3-hydroxy-3-methylbutyl)-4-((1-fluoro-3-hydroxypropan-2-yl)amino)nicotinamide] | 8.17 | 6.39 |  | 
CNC(=O)C[C@H]1CC[C@H](NC(=O)c2cnc(-n3ncc4cc(C#N)cnc43)cc2NC(C)C)CC1 [Example 218] | 7.71 | 6.95 |  | 
CC(C)Nc1cc(-n2ccc3cnc(N(C)C)nc32)ncc1C(=O)NC[C@@H](F)C(C)(C)O [Example 185, (R)-6-(2-(Dimethylamino)-7H-pyrrolo[2,3-d]pyrimidin-7-yl)-N-(2-fluoro-3-hydroxy-3-methylbutyl)-4-(isopropylamino)nicotinamide] | 8.47 | 6.46 |  | 
Cn1nnnc1-c1ccc(Nc2cc(-n3ccc4cc(C#N)cnc43)ncc2C(=O)NC[C@@H](F)C(C)(C)O)cc1 [Example 69, (R)-6-(5-cyano-1H-pyrrolo[2,3-b]pyridin-1-yl)-N-(2-fluoro-3-hydroxy-3-methylbutyl)-4-((4-(1-methyl-1H-tetrazol-5-yl)phenyl)amino)nicotinamide] | 8.89 | 7.30 |  | 
CC(C)Nc1cc(-n2ncc3cc(C#N)cnc32)ncc1C(=O)Nc1cnn(C2CN(S(C)(=O)=O)C2)c1 [Example 281] | 8.11 |  |  | pIC50 [2, 3]: 6.59
CC(CCF)Nc1cc(-n2ccc3cc(C#N)cnc32)ncc1C(=O)NC[C@@H](F)C(C)(C)O (single isomer, unassigned) [Example 426] |  |  | 8.80 | pEC50 [2, 4]: 7.29
CC(C)Nc1cc(-n2ncc3cc(C#N)cnc32)ncc1C(=O)NC1CCN(c2ncccn2)CC1 [Example 240] | 7.80 | 6.52 |  | 
CNS(=O)(=O)N1CCC(NC(=O)c2cnc(-n3ncc4cc(C#N)cnc43)cc2NC(C)C)CC1 [Example 313] | 7.83 |  |  | pIC50 [2, 3]: 6.54
CC(C)(O)[C@H](F)CNC(=O)c1cnc(-n2ncc3cc(C(N)=O)cnc32)cc1Nc1ccc2ncoc2c1 [Example 525] |  |  | 8.80 | pEC50 [2, 4]: 6.60
CC(C)Nc1cc(-n2ncc3cc(C#N)cnc32)ncc1C(=O)NCCC1CC1 [Example 302] | 8.39 |  |  | pIC50 [2, 3]: 6.83
